For 29 compounds, TGI and GI50 results are on record in PubChem BioAssay (NCI).

Where “and” joins values, the source holds several entries; their conditions need not be identical. Identical values can stand only once.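 Results reflect a 48-hour exposure of cells in 96-well plates to compound at five concentrations. GI50 is the concentration that inhibits growth by half. TGI: concentration producing complete growth inhibition.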 Where only a bound is given, the exact number is not on record here.

Test systems include DMS 114 small cell lung; DMS 273 small cell lung; HOP-18 NSCLC; KM20L2 colon; M19-MEL melanoma; RXF-631 renal; XF 498 CNS; DLD-1 colon; MDA-N.
What all share (test): NCI-60 cell line screen, 48 h

For the compound `C[S+](C)CCOC(=O)C(=[N+]=[N-])c1ccc([N+](=O)[O-])cc1`, the TGI with DMS 114 small cell lung, in the test on DMS 273 small cell lung, in the test on HOP-18 NSCLC, in the test with KM20L2 colon, in the test with M19-MEL melanoma and in the test with RXF-631 renal was over 100 µM each time. In the test with XF 498 CNS, this compound showed a TGI of over 100 µM.

Take `N#Cc1c(NN)nc(NN)c(C#N)c1-c1ccccc1`: the TGI with DLD-1 colon, with DMS 114 small cell lung, in the test with DMS 273 small cell lung, in the test on HOP-18 NSCLC, with KM20L2 colon and with M19-MEL melanoma was over 100 µM in each case. For the same compound, the TGI with RXF-631 renal and in the test with XF 498 CNS was over 100 µM throughout.

For `Cc1cc2nc(CCC(=O)O)c(=O)[nH]c2cc1C`, the TGI in the test on DLD-1 colon, in the test on DMS 114 small cell lung, in the test on HOP-18 NSCLC, in the test on KM20L2 colon, in the test with M19-MEL melanoma and in the test with RXF-631 renal was over 100 µM in each case. The compound further displayed a TGI in the test with XF 498 CNS of over 100 µM.

As for `CCCCCC/C=C1\CCC(CN2CCCC2)C1=O` (centres undefined), the TGI with DLD-1 colon is 18 µM; in the test on DMS 114 small cell lung it was 29.4 µM; with DMS 273 small cell lung, 25.5 µM; in the test on HOP-18 NSCLC, 32.9 µM; in the test on KM20L2 colon it was 41.3 µM; with M19-MEL melanoma, 25.6 µM. The TGI in the test on RXF-631 renal came out at 42.2 µM; with XF 498 CNS it was 31.4 µM.

With `Oc1ccccc1C=NCc1ccco1`, the TGI in the test with DLD-1 colon, with DMS 114 small cell lung, in the test on HOP-18 NSCLC, in the test with KM20L2 colon, with M19-MEL melanoma and in the test with RXF-631 renal was over 100 µM throughout. In the test with XF 498 CNS, this compound showed a TGI of over 100 µM.

Turning to `Clc1ccc2c(c1)C1C(CO2)C(c2ccccc2)=NN1c1ccccc1` (centres undefined), the TGI with DLD-1 colon was over 100 µM; with DMS 114 small cell lung it was 77.5 µM; in the test with DMS 273 small cell lung, 88.7 µM; in the test on HOP-18 NSCLC, 50.8 µM; in the test with KM20L2 colon, over 100 µM; in the test on M19-MEL melanoma, over 100 µM. The compound also showed a TGI in the test on XF 498 CNS of 59 µM.

Regarding `O=C(CC1(O)C(=O)Nc2c(Cl)ccc(Cl)c21)c1ccc2ccccc2c1` (centres undefined), the TGI with DLD-1 colon was 59 µM; with DMS 114 small cell lung, 19.2 µM; in the test on DMS 273 small cell lung, over 100 µM; with HOP-18 NSCLC, 37.2 µM; with KM20L2 colon it was 62.1 µM; in the test with M19-MEL melanoma, 7.82 µM. The same compound returned a TGI in the test on XF 498 CNS of 25.4 µM.

On to `CC(=O)OC1COC(Nc2ccc(C(C)=O)cc2)C(OC(C)=O)C1OC(C)=O` (centres undefined), for which the TGI in the test with DLD-1 colon, in the test on DMS 114 small cell lung, in the test on DMS 273 small cell lung, with HOP-18 NSCLC, in the test on KM20L2 colon and in the test on M19-MEL melanoma was over 100 µM in each case. In addition, the TGI with RXF-631 renal was over 100 µM.

On to `CCC/C(=N/NC(=O)C(N)=O)C(CC)C(=O)CCC(=O)N(Cc1ccccc1)Cc1ccccc1` (centres undefined), for which the TGI with DMS 114 small cell lung, in the test with DMS 273 small cell lung, in the test on HOP-18 NSCLC, in the test on KM20L2 colon, in the test on M19-MEL melanoma and in the test with RXF-631 renal was over 100 µM throughout. The compound also came in with a TGI in the test on XF 498 CNS of over 100 µM.

`CC(=O)[CH-]C(=O)c1ccccc1.CC(=O)[CH-]C(=O)c1ccccc1.[Eu+3].[OH-].[OH3+]`: the GI50 in the test on HOP-18 NSCLC, in the test with KM20L2 colon and in the test on M19-MEL melanoma was over 100 µM in each case. Also, the TGI in the test with HOP-18 NSCLC, in the test with KM20L2 colon and in the test on M19-MEL melanoma was over 100 µM throughout.

`CC(=O)[CH-]C(=O)c1ccccc1.CC(=O)[CH-]C(=O)c1ccccc1.CC1(C)C2CCC1(C)C([O-])C2.CC1(C)C2CCC1(C)C([O-])C2.[Ti+4]`: the GI50 in the test on DLD-1 colon is 29.2 µM; in the test on HOP-18 NSCLC, 36.6 µM; in the test on KM20L2 colon it was 60 µM; with M19-MEL melanoma it was 24.4 µM. The TGI in the test on DLD-1 colon, in the test with HOP-18 NSCLC, in the test with KM20L2 colon and with M19-MEL melanoma was over 100 µM throughout.

`CCC1(c2c(F)c(F)c(N)c(F)c2F)CCC(=O)NC1=O` (centres undefined): the TGI with DLD-1 colon, in the test on DMS 114 small cell lung, in the test with DMS 273 small cell lung, with HOP-18 NSCLC, in the test with M19-MEL melanoma and in the test with XF 498 CNS was over 100 µM in each case.

Turning to `O=C1NC(=O)C2C(=O)NC(=O)C1C2(c1ccccc1)c1cc[nH]c1` (centres undefined), the TGI in the test on DLD-1 colon, in the test with DMS 114 small cell lung, in the test with DMS 273 small cell lung, in the test on M19-MEL melanoma and with XF 498 CNS was over 100 µM in each case.

As to `N[C@@H]1CCCC[C@H]1N.O=C([O-])C(=O)[O-].[Pt+4]`, the GI50 in the test on DLD-1 colon is 3.46 µM; in the test with HOP-18 NSCLC, 34.3 µM; with KM20L2 colon, 0.263 µM; in the test with M19-MEL melanoma, 1.18 µM. For the same compound, the TGI was over 100 µM in the test with DLD-1 colon, over 100 µM with HOP-18 NSCLC, 24.2 µM in the test with KM20L2 colon and over 100 µM in the test on M19-MEL melanoma.

For the compound `O=C(CO)CC(=O)C(=O)Nc1ccccc1`, the TGI with DLD-1 colon, with DMS 114 small cell lung, in the test on DMS 273 small cell lung, with HOP-18 NSCLC, in the test on KM20L2 colon and in the test on M19-MEL melanoma was over 100 µM in each case. Also, the TGI with RXF-631 renal was over 100 µM.

Regarding `CCOC(=O)c1[nH]c(Br)c(-c2ccc(Br)cc2)c1Br`, in the test with MDA-N, the GI50 is 0.0979 µM; the TGI is 0.505 µM and 0.273 µM.

As for `N#CC(C(=O)/C(=N/N)C(C#N)c1ccccc1)c1ccccc1` (centres undefined), the TGI in the test with DLD-1 colon, in the test with DMS 114 small cell lung, in the test on HOP-18 NSCLC, in the test on M19-MEL melanoma, in the test on RXF-631 renal and in the test with XF 498 CNS was over 100 µM throughout.

Consider `Clc1cc(Cc2cc(Cl)c(Cl)c3c2OCOC3)c2c(c1Cl)COCO2`, for which the TGI was over 100 µM in the test with DLD-1 colon; over 100 µM in the test on DMS 114 small cell lung; over 100 µM in the test with DMS 273 small cell lung; 97.9 µM in the test on HOP-18 NSCLC; over 100 µM in the test with KM20L2 colon; over 100 µM in the test on M19-MEL melanoma.

Consider `CCOc1ccccc1NC(=O)CC1SC(=Nc2ccc([N+](=O)[O-])cc2)NC1=O` (centres undefined), for which the TGI with DLD-1 colon is 59 µM; with DMS 114 small cell lung it was 32 µM; in the test on HOP-18 NSCLC it was 51.1 µM; in the test with KM20L2 colon, 42.2 µM; in the test with M19-MEL melanoma, 64.4 µM; with XF 498 CNS it was 32.4 µM.

In turn, `CC(=O)[C@@]1(O)CC[C@H]2[C@@H]3C[C@H](C)C4=CC(=O)CC[C@]4(C)[C@H]3[C@@H](O)C[C@@]21C` registered a TGI in the test on MDA-N of over 100 µM.

Compound `O=NNc1ccc(S(=O)(=O)c2ccccc2)cn1` came in with a TGI with MDA-N of over 100 µM.

Consider `COc1cccc(NC(=O)/C(CC(=O)CC(c2ccccc2)c2c(O)c3ccccc3oc2=O)=N\NC(C)(C)C)c1OC` (centres undefined), for which the TGI in the test with DLD-1 colon, in the test with DMS 114 small cell lung, in the test with KM20L2 colon and with M19-MEL melanoma was over 100 µM throughout.

`CC(=O)OC[C@]1(O)CC[C@@]23CC1C[C@@H]2CCC1C(C)(C)CCC[C@@]13C` (some centres undefined): the TGI worked out at 28.8 µM in the test on DLD-1 colon; 25.3 µM in the test on DMS 114 small cell lung; 12.7 µM in the test on DMS 273 small cell lung; 31.7 µM in the test with KM20L2 colon; 29.4 µM in the test with M19-MEL melanoma; 27.3 µM in the test on RXF-631 renal. In the test with XF 498 CNS, this compound gave a TGI of 27.2 µM.

With `CC1(c2cccc3ccccc23)OC(=O)c2ccccc21` (centres undefined), the TGI in the test with DLD-1 colon is 75.2 µM; in the test with DMS 114 small cell lung, 38 µM; in the test with DMS 273 small cell lung, 28.6 µM; in the test on KM20L2 colon it was 35.7 µM; in the test on M19-MEL melanoma, 51.3 µM; in the test with RXF-631 renal, 70.7 µM. In the test with XF 498 CNS, the TGI was found to be 45.2 µM.

Take `CC(=O)[CH-]C(=O)c1ccccc1.CC(=O)[CH-]C(=O)c1ccccc1.CC(C)CCCC(C)[C@H]1CCC2[C@@H]3CC=C4C[C@@H]([O-])CC[C@]4(C)C3CC[C@@]21C.CC[O-].[Ti+4]` (some centres undefined): the GI50 with DLD-1 colon is 93.7 µM; in the test with HOP-18 NSCLC, 76 µM; with KM20L2 colon, 67.8 µM. The TGI with DLD-1 colon, in the test on HOP-18 NSCLC and in the test with KM20L2 colon was over 100 µM throughout.

Take `COC(=O)/C([Se]c1c(C)cc(C)cc1C)=C(\[Se]c1c(C)cc(C)cc1C)C(=O)OC`: the TGI with DLD-1 colon, with DMS 114 small cell lung, in the test with DMS 273 small cell lung, with HOP-18 NSCLC, in the test on KM20L2 colon and with M19-MEL melanoma was over 100 µM each time. In addition, the TGI in the test with RXF-631 renal is over 100 µM.

As to `COc1c(OC)c(OC)c2c(c1OC)c(=O)c1ccccc1n2C`, in the test with MDA-N, the TGI was over 100 µM.

With `COc1cc(/C=C(\C#N)C(=O)c2ccccc2)ccc1O`, the TGI in the test on KM20L2 colon, in the test with M19-MEL melanoma and in the test with XF 498 CNS was over 100 µM throughout.

Regarding `CCCCCCCCCCCCCC(=O)CC(=O)c1c(O)cccc1O`, the TGI in the test on DLD-1 colon was over 100 µM; in the test with DMS 114 small cell lung it was 47.1 µM; in the test on DMS 273 small cell lung, 41.1 µM; with HOP-18 NSCLC, over 100 µM; in the test on KM20L2 colon, over 100 µM; in the test on M19-MEL melanoma, over 100 µM. In addition, the TGI in the test with XF 498 CNS was 51.2 µM.
